# Measured values from patent US11524966B1 (Valo Early Discovery, Inc., priority 2017, dated 2022).
# Target: T1, USP28 (His-tagged USP28-FL-mammalian) (Homo sapiens, UniProt Q96RU2)
# T1 construct: Expression of USP28 (1-1077)-TEV-6*His (pTT5 vector); made in house; host or cells: Expi293f cells (pTT5 vector)
# T1 sequence (Q96RU2 1-1077): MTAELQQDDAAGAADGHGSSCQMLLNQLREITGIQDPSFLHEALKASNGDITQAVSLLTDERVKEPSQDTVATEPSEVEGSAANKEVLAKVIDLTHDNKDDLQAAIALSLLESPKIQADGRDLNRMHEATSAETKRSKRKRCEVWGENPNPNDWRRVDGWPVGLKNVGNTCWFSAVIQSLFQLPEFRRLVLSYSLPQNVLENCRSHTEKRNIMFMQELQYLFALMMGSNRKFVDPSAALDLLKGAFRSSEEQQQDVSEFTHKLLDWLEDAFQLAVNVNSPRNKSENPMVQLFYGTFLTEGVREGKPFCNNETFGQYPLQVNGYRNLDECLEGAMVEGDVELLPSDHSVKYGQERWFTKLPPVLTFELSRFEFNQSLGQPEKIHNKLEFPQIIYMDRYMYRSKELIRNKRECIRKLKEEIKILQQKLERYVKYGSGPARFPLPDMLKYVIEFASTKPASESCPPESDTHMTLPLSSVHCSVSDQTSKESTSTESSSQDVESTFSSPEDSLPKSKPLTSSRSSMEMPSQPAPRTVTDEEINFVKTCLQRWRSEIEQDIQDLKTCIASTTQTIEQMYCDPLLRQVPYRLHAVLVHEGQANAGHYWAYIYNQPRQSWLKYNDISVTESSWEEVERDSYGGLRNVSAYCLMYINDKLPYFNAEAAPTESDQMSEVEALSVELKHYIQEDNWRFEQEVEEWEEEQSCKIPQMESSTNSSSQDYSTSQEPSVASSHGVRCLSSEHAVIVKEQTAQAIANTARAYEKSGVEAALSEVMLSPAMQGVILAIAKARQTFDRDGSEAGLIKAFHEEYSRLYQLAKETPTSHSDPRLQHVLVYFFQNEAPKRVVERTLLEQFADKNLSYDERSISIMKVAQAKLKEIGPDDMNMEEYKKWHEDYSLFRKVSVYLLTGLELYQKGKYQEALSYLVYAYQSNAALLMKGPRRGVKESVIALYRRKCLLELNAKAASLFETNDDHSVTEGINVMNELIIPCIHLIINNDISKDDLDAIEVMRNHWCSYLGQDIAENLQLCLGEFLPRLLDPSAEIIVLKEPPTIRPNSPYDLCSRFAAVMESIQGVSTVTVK
# Experiment: Ubiquitin-Rhodamine 110 Assay for USP28 Activity, Example A-1(a)
# Type: biochemical
# Conditions: Ubiquitin-Rhodamine 110 assay, Example A-1(a); read-out: USP28 A-1(a) IC50 range
# In short: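 Full-length His-tagged USP28 (1-1077, Expi293F-expressed; […]) was preincubated 30 min with compound (25 μM–1.3 nM, 10-point 3-fold) in 20 mM Tris-HCl pH 8.0, 3 mM BME, 0.03% BGG, 0.01% Triton X-100. Ub-Rh110 (25 nM) was then added for 45 min at room temperature, stopped with citric acid, and read by fluorescence (485/535 nm).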
row,SMILES,IC50 [nM]
1,"CCO[C@H]1CN(c2ccc3c(c2)OC[C@H](NC(=O)c2sc4nc(C)ccc4c2N)C3)C[C@@H]1N [Example 115, 3-amino-N-[(3R)-7-[(3S,4S)-3-amino-4-ethoxypyrrolidin-1-yl]-3,4-dihydro-2H-1-benzopyran-3-yl]-6-methylthieno[2,3-b]pyridine-2-carboxamide]",1 to 50
2,"CO[C@H]1CN(c2ccc3c(c2)CC[C@H](NC(=O)c2sc4nc(C)ccc4c2N)C3)C[C@@H]1N [Example 116, 3-amino-N-[(2S)-6-[(3S,4S)-3-amino-4-methoxypyrrolidin-1-yl}-1,2,3,4-tetrahydronaphthalen-2-yl]-6-methylthieno[2,3-b]pyridine-2-carboxamide]",50 to 200
3,"CO[C@H]1CN(c2ccc3c(c2)OC[C@H](NC(=O)c2sc4nc(C)cnc4c2N)C3)C[C@@H]1N [Example 117, 7-amino-N-[(3R)-7-[(3S,4S)-3-amino-4-methoxypyrrolidin-1-yl]-3,4-dihydro-2H-1-benzopyran-3-yl]-3-methylthieno[2,3-b]pyrazine-6-carboxamide]",1 to 50
4,"CO[C@H]1CN(c2ccc3c(c2)OC[C@H](NC(=O)c2sc4nc(C)sc4c2N)C3)C[C@@H]1N [Example 118, 6-amino-N-[(3R)-7-[(3S,4S)-3-amino-4-methoxypyrrolidin-1-yl]-3,4-dihydro-2H-1-benzopyran-3-yl]-2-methylthieno[2,3-d][1,3]thiazole-5-carboxamide]",50 to 200
5,"CO[C@H]1CCN(c2ccc3c(c2)OC[C@H](NC(=O)c2sc4nc(C)ccc4c2N)C3)C[C@@H]1N [Example 119, 3-amino-N-[(3R)-7-[(3S,4S)-3-amino-4-methoxypiperidin-1-yl}-3,4-dihydro-2H-1-benzopyran-3-yl]-6-methylthieno[2,3-b]pyridine-2-carboxamide]",50 to 200
6,"CO[C@@H]1CCN(c2ccc3c(c2)OC[C@H](NC(=O)c2sc4nc(C)ccc4c2N)C3)C[C@H]1N [Example 120, 3-amino-N-[(3R)-7-[(3R,4R)-3-amino-4-methoxypiperidin-1-yl]-3,4-dihydro-2H-1-benzopyran-3-yl]-6-methylthieno[2,3-b]pyridine-2-carboxamide]",1 to 50
7,"CO[C@@H]1CN(c2ccc3c(c2)OC[C@H](NC(=O)c2sc4nc(C)ccc4c2N)C3)C[C@@H]1N [Example 121, 3-amino-N-[(3R)-7-[(3S,4R)-3-amino-4-methoxypyrrolidin-1-yl]-3,4-dihydro-2H-1-benzopyran-3-yl]-6-methylthieno[2,3-b]pyridine-2-carboxamide]",1 to 50
8,"CO[C@H]1CN(c2ccc3c(c2)OC[C@H](NC(=O)c2sc4nc(C)ccc4c2N)C3)C[C@H]1N [Example 122, 3-amino-N-[(3R)-7-[(3R,4S)-3-amino-4-methoxypyrrolidin-1-yl]-3,4-dihydro-2H-1-benzopyran-3-yl]-6-methylthieno[2,3-b]pyridine-2-carboxamide]",1 to 50
9,"Cc1ccc2c(N)c(C(=O)N[C@H]3COc4cc([C@H]5C[C@@H](N)C5)ccc4C3)sc2n1 [Example 123, 3-amino-6-methyl-N-[(3R)-7-[(1s,3S)-3-aminocyclobutyl]-3,4-dihydro-2H-1-benzopyran-3-yl]thieno[2,3-b]pyridine-2-carboxamide]",1 to 50
10,"Cc1ccc2c(N)c(C(=O)N[C@H]3COc4cc([C@H]5C[C@H](N)C5)ccc4C3)sc2n1 [Example 124, 3-amino-6-methyl-N-[(3R)-7-[(1r,3r)-3-aminocyclobutyl]-3,4-dihydro-2H-1-benzopyran-3-yl]thieno[2,3-b]pyridine-2-carboxamide]",1 to 50
11,"Cc1ccc2c(N)c(C(=O)N[C@H]3COc4cc(C5CC6COCC(C5)N6)ccc4C3)sc2n1 (stereo partly drawn) [Example 125, 3-amino-6-methyl-N-[(3R)-7-{3-oxa-9-azabicyclo[3.3.1]nonan-7-yl}-3,4-dihydro-2H-1-benzopyran-3-yl]thieno[2,3-b]pyridine-2-carboxamide]",1 to 50
12,"Cc1ccc2c(N)c(C(=O)N[C@H]3COc4cc(N5CC6CCC(C5)N6)c(C#N)c(F)c4C3)sc2n1 [Example 126, 3-amino-N-[(3R)-6-cyano-7-{3,8-diazabicyclo[3.2.1]octan-3-yl}-5-fluoro-3,4-dihydro-2H-1-benzopyran-3-yl]-6-methylthieno[2,3-b]pyridine-2-carboxamide]",1 to 50
13,"Cc1ccc2c(N)c(C(=O)N[C@H]3COc4cc(N5CC6CNCC(C5)O6)c(C#N)c(F)c4C3)sc2n1 [Example 127, 3-amino-N-[(3R)-6-cyano-5-fluoro-7-{9-oxa-3,7-diazabicyclo[3.3.1]nonan-3-yl}-3,4-dihydro-2H-1-benzopyran-3-yl]-6-methylthieno[2,3-b]pyridine-2-carboxamide]",1 to 50
14,"CO[C@H]1CN(c2ccc3c(c2)OC[C@H](NC(=O)c2sc4nc(C)ccc4c2N)C3)CC[C@@H]1N [Example 128, 3-amino-N-[(3R)-7-[(3S,4S)-4-amino-3-methoxypiperidin-1-yl]-3,4-dihydro-2H-1-benzopyran-3-yl]-6-methylthieno[2,3-b]pyridine-2-carboxamide]",1 to 50
15,"CO[C@@H]1CN(c2ccc3c(c2)OC[C@H](NC(=O)c2sc4nc(C)ccc4c2N)C3)CC[C@H]1N [Example 129, 3-amino-N-[(3R)-7-[(3R,4R)-4-amino-3-methoxypiperidin-1-yl]-3,4-dihydro-2H-1-benzopyran-3-yl]-6-methylthieno[2,3-b]pyridine-2-carboxamide]",1 to 50
16,"CO[C@H]1CN(c2ccc3c(c2)CC[C@H](NC(=O)c2sc4nc(C)cnc4c2N)C3)C[C@@H]1N [Example 130, 7-amino-N-[(2S)-6-[(3S,4S)-3-amino-4-methoxypyrrolidin-1-yl]-1,2,3,4-tetrahydronaphthalen-2-yl]-3-methylthieno[2,3-b]pyrazine-6-carboxamide]",50 to 200
17,"CCn1ccc2cc(C(=O)N[C@H]3CCc4cc(N5C[C@H](OC)[C@@H](N)C5)ccc4C3)nnc21 [Example 131, N-[(2S)-6-[(3S,4S)-3-amino-4-methoxypyrrolidin-1-yl]-1,2,3,4-tetrahydronaphthalen-2-yl]-7-ethyl-7H-pyrrolo[2,3-c]pyridazine-3-carboxamide]",> 2000
18,"CCn1ccc2cc(C(=O)N[C@H]3CCc4cc(N5C[C@H](OC)[C@@H](N)C5)ccc4C3)cnc21 [Example 132, N-[(2S)-6-[(3S,4S)-3-amino-4-methoxypyrrolidin-1-yl]-1,2,3,4-tetrahydronaphthalen-2-yl]-1-ethyl-1H-pyrrolo[2,3-b]pyridine-5-carboxamide]",200 to 2000
19,"CO[C@H]1CN(c2ccc3c(c2)CC[C@H](NC(=O)c2sc4nc(C)sc4c2N)C3)C[C@@H]1N [Example 133, 6-amino-N-[(2S)-6-[(3S,4S)-3-amino-4-methoxypyrrolidin-1-yl]-1,2,3,4-tetrahydronaphthalen-2-yl]-2-methylthieno[2,3-d][1,3]thiazole-5-carboxamide]",50 to 200
20,"COc1ccc2c(N)c(C(=O)N[C@H]3CCc4cc(N5C[C@H](OC)[C@@H](N)C5)ccc4C3)sc2n1 [Example 134, 3-amino-N-[(2S)-6-[(3S,4S)-3-amino-4-methoxypyrrolidin-1-yl]-1,2,3,4-tetrahydronaphthalen-2-yl]-6-methoxythieno[2,3-b]pyridine-2-carboxamide]",200 to 2000
21,"COc1nc2sc(C(=O)N[C@H]3CCc4cc(N5C[C@H](OC)[C@@H](N)C5)ccc4C3)c(N)c2cc1F [Example 135, 3-amino-N-[(2S)-6-[(3S,4S)-3-amino-4-methoxypyrrolidin-1-yl]-1,2,3,4-tetrahydronaphthalen-2-yl]-5-fluoro-6-methoxythieno[2,3-b]pyridine-2-carboxamide]",200 to 2000
22,"CO[C@H]1CN(c2cc(F)c3c(c2)CC[C@H](NC(=O)c2sc4nc(C)ccc4c2N)C3)C[C@@H]1N [Example 136, 3-amino-N-[(2S)-6-[(3S,4S)-3-amino-4-methoxypyrrolidin-1-yl]-8-fluoro-1,2,3,4-tetrahydronaphthalen-2-yl]-6-methylthieno[2,3-b]pyridine-2-carboxamide]",> 2000
23,"CO[C@H]1CN(c2cc(F)c3c(c2)CC[C@@H](NC(=O)c2sc4nc(C)ccc4c2N)C3)C[C@@H]1N [Example 137, 3-amino-N-[(2R)-6-[(3S,4S)-3-amino-4-methoxypyrrolidin-1-yl]-8-fluoro-1,2,3,4-tetrahydronaphthalen-2-yl]-6-methylthieno[2,3-b]pyridine-2-carboxamide]",50 to 200
